Test results: patent publication US20250345370A1, “MICROBIAL LIBERATION OF N-METHYLSEROTONIN FROM ORANGE FIBER” (Washington University, priority 2022, published 2025)
Read-outs that look alike come from different tables or passages of the source.

Tests used:
[1] = methanol, 50 mg orange fiber
[2] = Targeted LC-QqQ-MS of N-methylserotonin levels in gut contents, tissues, plasma and feces of gnotobiotic mice
[3] = N-methylserotonin degradation test in bacterial monocultures; conditions: 5 ng/ml added to monocultures of the 14 strains, 72-hour period
Experimental: Experiments to determine whether N-methylserotonin is synthesized de novo by B. ovatus were carried out in 10 mL TYG with or without supplementation with tryptophan, tryptamine, serotonin, dimethylserotonin, trimethylserotonin, methyltryptamine, or S-adenosyl methionine (final concentrations; 5 mg/mL; all from Sigma). Experiments seeking to test the capacity of all 14 bacterial strains introduced into mice to degrade N-methylserotonin in vitro were carried out using 10 mL TYG and 50 ng N-methylserotonin, with samples collected every 24 hours. Assays were performed in triplicate for each condition, using the protocol described herein.
Several other experiments were performed to characterize in vitro N-methylserotonin liberation by members of the 14 strain consortia.

[4] = Human studies with pea and orange fiber snack prototypes: fecal N-methylserotonin and serotonin levels; type: in vivo
Experimental: Human studies with pea and orange fiber snack prototypes. Two separate open-label, single group assignment studies were performed involving members of the Missouri Adolescent Female Twin Study (MOAFTS) cohort who were age 31-45 years at the time of enrollment. The first study with the pea fiber snack was performed between April and August 2017, while the second study with the orange fiber snack was conducted between August and December 2017. All participants provided written informed consent and the studies were approved by the Washington University Institutional Review Board (IRB ID #201611122). (ClinicalTrials.gov NCT03078283).
The design of the two studies were identical except for the fiber snack supplement used and the number of participants in each study. Individuals who were pregnant or trying to get pregnant, had inflammatory bowel disease, gastrointestinal cancer, hepatitis, HIV, renal failure, or allergies to dairy, eggs, fish, crustacean shellfish, tree nuts, sesame seeds, peanuts, wheat, gluten, soybeans, celery, or mustard were excluded from the study. In Study 1, four twin pairs were concordant for obesity (BMI>30 kg/m2) while five pairs were discordant with one member being obese and the other non-obese (n=18 participants, […] (mean±SD); Table S8B). Study 2 involved 24 participants: 12 dizygotic twin pairs [37±2.9 years (mean±SD)], nine of whom had participated in the pea fiber study; for these nine pairs, the interval between cessation of pea fiber snack consumption and initiation of orange fiber consumption ranged from 50 to 106 days [84+26 days (mean±SD)]. Participants consumed their normal, unrestricted diet for the first two weeks of the study (pre-intervention phase). At the beginning of week three, they supplemented their diets with one 35 g fiber snack serving a day for one week, then two 35 g snack servings a day the following week, and thereafter, three 35 g snacks per day for four weeks (weeks 5-8) at breakfast, lunch and dinner. No attempt was made to adjust the diets of participants other than supplementation with the fiber snack. Snack prototypes were manufactured by Mondeldz International, Inc. (see Table S8A for their composition), which participants received in weekly shipments from the study center. The pea fiber snacks were in the form of rotary biscuits (6.7 g total fiber/35 g snack) or extruded bars (8.1 g fiber/35 g snack) with participants having the option to alternate between them. The orange fiber snacks were all in the form of extruded bars (10.2 g total fiber/35 g snack). Compliance was monitored throughout by the study coordinator through weekly phone calls. The primary outcomes for each study were the effects of the respective prototypes on gut microbial community structure and function.
Fecal samples were collected by participants in small medically approved collection containers. Each fecal sample was frozen immediately at −20° C. and temporarily stored in dedicated freezers provided to participants at the beginning of the study. Within 12-48 hours after collection, all samples were shipped, via overnight delivery, in an insulated container containing frozen gel packs, to a biospecimen repository located in Washington University in St. Louis and overseen by one of the authors (A.C.H.). Once received, samples were stored at −80° C. until processing for LC-QqQ-MS analysis of N-methylserotonin levels and culture-independent characterization of ASV and CAZyme gene abundances.
Measurement of fecal N-methylserotonin levels—Each fecal sample was homogenized with a porcelain mortar (4 L) and pestle while submerged in liquid nitrogen; multiple 500 mg aliquots of the pulverized frozen material were stored at −80° C. N-methylserotonin was quantified using the same protocol that was employed for mouse fecal samples (as described herein elsewhere).
N-methylserotonin levels and microbiome CAZyme gene abundances in humans consuming fiber snack prototypes. […]

[5] = 14-member consortium, 10% orange fiber diet

Question: For `CNCCc1c[nH]c2ccc(O)cc12` [N-methylserotonin], which “N-methylserotonin released after two rounds of extraction” value [1] is on record?
Answer: 31 ng

Question: What about the “N-methylserotonin released in total after 15 rounds” value [1] of the same compound?
Answer: 171 ng

Question: And the N-methylserotonin recovered ([1]; Extraction 1)?
Answer: 16 ng

Question: What about the N-methylserotonin recovered ([1]; Extraction 2) of the same compound?
Answer: 15 ng

Question: And the N-methylserotonin recovered ([1]; Extraction 3)?
Answer: 16 ng

Question: And the N-methylserotonin recovered ([1]; Extraction 4)?
Answer: 15 ng

Question: What about the N-methylserotonin recovered ([1]; Extraction 5) of the same compound?
Answer: 14 ng

Question: What about the N-methylserotonin recovered ([1]; Extraction 6) of the same compound?
Answer: 13 ng

Question: And the N-methylserotonin recovered ([1]; Extraction 7)?
Answer: 12 ng

Question: What about the N-methylserotonin recovered ([1]; Extraction 8) of the same compound?
Answer: 10 ng

Question: What about the N-methylserotonin recovered ([1]; Extraction 9) of the same compound?
Answer: 11 ng

Question: And the N-methylserotonin recovered ([1]; Extraction 10)?
Answer: 10 ng

Question: What about the N-methylserotonin recovered ([1]; Extraction 11) of the same compound?
Answer: 9 ng

Question: What about the N-methylserotonin recovered ([1]; Extraction 12) of the same compound?
Answer: 9 ng

Question: And the N-methylserotonin recovered ([1]; Extraction 13)?
Answer: 8 ng

Question: What about the N-methylserotonin recovered ([1]; Extraction 14) of the same compound?
Answer: 7 ng

Question: What about the N-methylserotonin recovered ([1]; Extraction 15) of the same compound?
Answer: 6 ng

Question: What about the “fecal N-methylserotonin levels” value ([2]; 14-member community, orange fiber-supplemented HiSF-LoFV diet) of the same compound?
Answer: 131±19 ng/g feces

Question: What about the “N-methylserotonin in cecal contents” value [2, 5] of the same compound?
Answer: 173 ± 14 ng/g

Question: And the “N-methylserotonin in cecal tissue” value [2, 5]?
Answer: 130 ± 13 ng/g

Question: And the “N-methylserotonin in colonic contents” value [2, 5]?
Answer: 139 ± 13 ng/g

Question: What about the “N-methylserotonin in colonic tissue” value [2, 5] of the same compound?
Answer: 164 ± 25 ng/g

Question: What about the N-methylserotonin in plasma [2, 5] of the same compound?
Answer: 1.22 ± 0.76 ng/mL

Question: And the “N-methylserotonin in small intestine, liver, gastrocnemius muscle and kidney” value [2, 5]?
Answer: < 1 ng/g

Question: And the “N-methylserotonin in cecal or colonic contents or intestinal and extra-intestinal tissues” value ([2]; 14-member consortium, 10% pea fiber diet, below limits of detection)?
Answer: < 0.5 ng/g

Question: What about the “fecal N-methylserotonin levels” value ([2]; germ-free mice, 1 mg/kg/day in drinking water) of the same compound?
Answer: 133.5 ± 15 ng/g

Question: What about the “input N-methylserotonin remaining intact/unmodified” value [3] of the same compound?
Answer: 97±2%

Question: And the “fecal samples in which N-methylserotonin was undetectable” value ([4]; 36 samples, pea fiber snack prototype, weeks 3 and 5)?
Answer: 87%

Question: And the “fecal samples in which N-methylserotonin was present” value ([4]; 48 samples, participants consuming the orange fiber snack prototype)?
Answer: 98%

Question: And the “fecal N-methylserotonin concentration” value ([4]; orange fiber snacks at maximal dose (3 snacks/day), mean±SD)?
Answer: 72.5 ± 38.4 µM

Question: And the “fecal N-methylserotonin (undetectable)” value ([4]; pea fiber snack prototype, 87% of 36 samples)?
Answer: < 0.05 µg/g
